We go through one molecule from US20130053243A1, “PLANTS HAVING INCREASED TOLERANCE TO HERBICIDES” (BASF SE, priority 2010, published 2013).

Type in all cases: biochemical
Test [1] addresses T1, Arabidopsis HPPD variant P336A E363Q (Arabidopsis thaliana, UniProt P93836, E363Q/P336A).
T1 construct: His6 (N); made in house; host or cells: E. coli BL21 (DE3)
Description: HPPD activity assay, mutant enzyme. The method, then: (§1) HPPD produces homogentisic acid and CO2 from 4-hydroxyphenylpyruvate (4-HPP) and O2. The activity assay for HPPD is based on the analysis of homogentisic acid by reversed phase HPLC.
(§2) The assay mixture can contain 150 mM potassium phosphate buffer pH 7.0, 50 mM L-ascorbic acid, 1 μM FeSO4 and 7 μg of purified enzyme in a total volume of 1 ml.
(§3) Inhibitors are dissolved in DMSO (dimethylsulfoxide) to a concentration of 20 mM or 0.5 mM, respectively. From this stock solution serial five-fold dilutions are prepared in DMSO, which are used in the assay. The respective inhibitor solution accounts for 1% of the assay volume. Thus, final inhibitor concentrations range from 200 μM to 2.5 nM or from 5 μM to 63 pM, respectively.
(§4) After a preincubation of 30 min the reaction is started by adding 4-HPP to a final concentration of 0.1 mM. The reaction is allowed to proceed for 120 min at room temperature. The reaction is stopped by addition of 100 μl of 4.5 M phosphoric acid.
(§5) The sample is extracted on an Oasis® HLB cartridge 3 cc/60 mg (Waters) that was preequilibrated with 63 mM phosphoric acid. L-ascorbic acid is washed out with 3 ml of 63 mM phosphoric acid. Homogentisate is eluted with 1 ml of a 1:1 mixture of 63 mM phosphoric acid and methanol (w/w).
(§6) 10 μl of the eluate is analyzed by reversed phase HPLC on a Symmetry® C18 column (particle size 3.5 μm, dimensions 4.6×100 mm; Waters) using 5 mM H3PO4/15% ethanol (w/w) as an eluent.
(§7) Homogentisic acid is detected electrochemically and quantified by measuring peak areas (Empower software; Waters).
(§8) Activities are normalized by setting the uninhibited enzyme activity to 100%. IC50 values are calculated using non-linear regression.
(§9) The assay mixture can contain 150 mM potassium phosphate buffer pH 7.0, 50 mM L-ascorbic acid, 100 μM Catalase (Sigma-Aldrich), 1 μM FeSO4 and 0.2 units of purified HPPD enzyme in a total volume of 505 μl. 1 unit is defined as the amount of enzyme that is required to produce 1 nmol of HGA per minute at 20° C.
(§10) After a preincubation of 30 min the reaction is started by adding 4-HPP to a final concentration of 0.05 mM. The reaction is allowed to proceed for 45 min at room temperature. The reaction is stopped by the addition of 50 μl of 4.5 M phosphoric acid. The sample is filtered using a […] pore size PVDF filtration device.
(§11) 5 μl of the cleared sample is analyzed on an Atlantis T3 column (particle size 3 μm, dimensions 3×50 mm; Waters) by isocratic elution using 90% 10 mM NaH2PO4 pH 2.2, 10% methanol (v/v).
(§12) HGA is detected electrochemically at 750 mV (mode: DC; polarity: positive) and quantified by integrating peak areas (Empower software; Waters).
(§13) Inhibitors are dissolved in DMSO (dimethylsulfoxide) to a concentration of 0.5 mM. From this stock solution serial five-fold dilutions are prepared in DMSO, which are used in the assay. The respective inhibitor solution accounts for 1% of the assay volume. Thus, final inhibitor concentrations range from 5 μM to 320 pM, respectively. Activities are normalized by setting the uninhibited enzyme activity to 100%. IC50 values are calculated using non-linear regression.
(§14) Purified, mutant HPPD enzymes are obtained by the methods described above. Dose response and kinetic measurements are carried out using the described HPPD activity assay. Apparent michaelis constants (Km) and maximal reaction velocities (Vmax) are calculated by non-linear regression with the software GraphPad Prism 5 (GraphPad Software, La Jolla, USA) using a substrate inhibition model. Apparent kcat values are calculated from Vmax assuming 100% purity of the enzyme preparation. Weighted means (by standard error) of Km and IC50 values are calculated from at least three independent experiments. The Cheng-Prusoff equation for competitive inhibition (Cheng, Y. C.; Prusoff, W. H. Biochem Pharmacol 1973, 22, 3099-3108) is used to calculate dissociation constants (Ki). Examples of the data obtained are depicted in Table 13.

Test [2] deals with T2, Arabidopsis HPPD variant M335Q (Arabidopsis thaliana, UniProt P93836, M335Q).
T2 construct: His6 (N); made in house; host or cells: E. coli BL21 (DE3)
In words: HPPD activity assay, mutant enzyme. The method, then: as §1, §2, §3, §4, §5, §6, §7, §8, §9, §10, §11, §12, §13, §14

For test [3], the target named is T3, Arabidopsis HPPD variant L385V (Arabidopsis thaliana, UniProt P93836, L385V).
T3 construct: His6 (N); made in house; host or cells: E. coli BL21 (DE3)
Description: HPPD activity assay, mutant enzyme. On the procedure:
as §1, §2, §3, §4, §5, §6, §7, §8, §9, §10, §11, §12, §13, §14

Test [4] has as its target T4, Arabidopsis HPPD variant I393L (Arabidopsis thaliana, UniProt P93836, I393L).
T4 construct: His6 (N); made in house; host or cells: E. coli BL21 (DE3)
In words: HPPD activity assay, mutant enzyme. On the procedure: as §1, §2, §3, §4, §5, §6, §7, §8, §9, §10, §11, §12, §13, §14

Test [5] concerns the target T5, Arabidopsis HPPD variant M335N (Arabidopsis thaliana, UniProt P93836, M335N).
T5 construct: His6 (N); made in house; host or cells: E. coli BL21 (DE3)
In words: HPPD activity assay, mutant enzyme. On the procedure: as §1, §2, §3, §4, §5, §6, §7, §8, §9, §10, §11, §12, §13, §14

In the next test the target is Chlamydomonas HPPD2 (Chlamydomonas reinhardtii, UniProt A0A2K3DET5). In words: HPPD activity assay, wildtype enzyme. Conditions: calculated from IC50 with Cheng-Prusoff equation, read-out: dissociation constant Ki. The method, then:
as §1, §2
Inhibitors are dissolved in DMSO (dimethylsulfoxide) to a concentration of 20 mM or 0.5 mM, respectively. From this stock solution serial five-fold dilutions are prepared in DMSO, which are used in the assay. The respective inhibitor solution accounts for 1% of the assay volume. […]
as §6, §7
Activities are normalized by setting the uninhibited enzyme activity to 100%. IC50 values are calculated using non-linear regression. […]
as §11
HGA is detected electrochemically at 750 mV (mode: DC; polarity: positive) and quantified by integrating peak areas (Empower software; Waters). […]

T4 sequence (P93836 whole entry I393L): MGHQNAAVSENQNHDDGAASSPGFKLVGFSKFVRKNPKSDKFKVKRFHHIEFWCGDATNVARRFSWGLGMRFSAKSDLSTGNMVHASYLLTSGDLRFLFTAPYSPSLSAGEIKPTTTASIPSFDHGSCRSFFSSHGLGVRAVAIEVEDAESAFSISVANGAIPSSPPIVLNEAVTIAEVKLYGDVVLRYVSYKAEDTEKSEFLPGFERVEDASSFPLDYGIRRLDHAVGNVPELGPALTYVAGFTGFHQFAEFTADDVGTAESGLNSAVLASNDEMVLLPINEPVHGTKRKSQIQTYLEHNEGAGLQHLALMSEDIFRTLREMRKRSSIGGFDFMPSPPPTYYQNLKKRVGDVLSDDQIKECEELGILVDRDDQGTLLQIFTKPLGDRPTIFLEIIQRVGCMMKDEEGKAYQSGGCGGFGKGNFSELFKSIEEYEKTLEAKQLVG
T1 sequence (P93836 whole entry P336A/E363Q): as the sequence (P93836 whole entry I393L) above, with P336A, E363Q, L393I counted along it
T3 sequence (P93836 whole entry L385V): as the sequence (P93836 whole entry I393L) above, with L385V, L393I counted along it
T5 sequence (P93836 whole entry M335N): as the sequence (P93836 whole entry I393L) above, with M335N, L393I counted along it
T2 sequence (P93836 whole entry M335Q): as the sequence (P93836 whole entry I393L) above, with M335Q, L393I counted along it
Sequence of Chlamydomonas HPPD2 (A0A2K3DET5 entry or part of it): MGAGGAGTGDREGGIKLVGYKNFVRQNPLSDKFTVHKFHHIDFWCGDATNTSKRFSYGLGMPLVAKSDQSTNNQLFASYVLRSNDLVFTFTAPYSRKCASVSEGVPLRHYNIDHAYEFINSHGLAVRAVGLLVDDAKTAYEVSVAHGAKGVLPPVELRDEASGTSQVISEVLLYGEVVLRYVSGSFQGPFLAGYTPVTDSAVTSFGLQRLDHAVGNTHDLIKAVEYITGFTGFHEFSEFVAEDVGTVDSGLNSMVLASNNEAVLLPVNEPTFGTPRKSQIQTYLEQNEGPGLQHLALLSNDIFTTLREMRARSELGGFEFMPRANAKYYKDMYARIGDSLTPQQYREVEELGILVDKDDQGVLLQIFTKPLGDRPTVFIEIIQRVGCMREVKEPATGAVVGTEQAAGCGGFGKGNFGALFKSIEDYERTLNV

For the molecule `CC1=NOC(c2c(Cl)ccc(C3=C(O)c4ncccc4N(CC(F)F)S3(=O)=O)c2Cl)C1` (stereo not drawn) [Inhibitor 1, 3-[2,4-dichloro-3-(3-methyl-4,5-dihydroisoxazol-5-yl)phenyl]-1-(2,2-difluoroethyl)-2,2-dioxo-pyrido[3,2-c]thiazin-4-ol], the Ki (usually the dissociation constant of the complex between target and ligand, obtained from inhibition or displacement) was 13 nM in test [1]; 24 nM in test [2]; 19 nM in test [3]; 21 nM in test [4]; 20 nM in test [5]; 8 nM on Chlamydomonas HPPD2.
